Source: a melting point compilation (Tetko et al.; mined from patent text by program, amines drawn as free bases though some values may be those of a salt)

| Compound | melting point |
| --- | --- |
| Cc1ccc(OCC(=O)c2cc(C(C)C)c(O)c(C(C)C)c2)cc1 | 124 to 125 °C |
| CCOC(=O)c1cc(C#N)c(Cl)cc1OC | 102 to 103 °C |
| CC1(C)CS(=O)(=O)CC(C)(C)N1N | 122 °C |
| COc1ccc(-c2c3ccc(OC)cc3cc3sc4ccccc4c23)cc1 | 158 to 159 °C |
| Cc1nc(CO)n(Cc2ccccc2)c1C | 156 to 158 °C |
| CC1(C)CC(=O)C2=C(C1)NC1=C(C(=O)CC(C)(C)C1)C2c1ccc(Cl)c(Sc2ccccc2)c1 | 202 to 204 °C |
| CC(OC(=O)OC1CCCCC1)OC(=O)C1(C(=O)OC(C)OC(=O)OC2CCCCC2)Oc2ccc(C[C@@H](C)NC[C@H](O)c3cccc(Cl)c3)cc2O1 (stereo not given in full) | 78 to 81 °C |
| CCc1noc(CN2C(=O)c3ccccc3C2=O)n1 | 106 to 107 °C |
| CCCOc1ccc(-c2ccc3c(c2)C(C)(C)CCC3(C)C)cc1-c1ccc(C(=O)O)cc1 | 199 to 204 °C |
| CC(=O)Nc1ccnn1-c1c(F)c(F)c(C(F)(F)F)c(F)c1F | 102 to 104 °C |
| COc1ccc(C(=O)C2CCN(C3CN(C(=O)c4ccccc4)CCC3O)CC2)cc1 (stereo not given) | 114 to 115 °C |
| CC(C)(C)C(=O)Nc1cc2c(O)n(I)c(I)nc-2n1 | 233 °C |
| O=C(O)C1=Cc2cc(-c3ccc4c(c3)OCO4)ccc2SCC1 | 227 to 229 °C |
| CN(C)CC(=O)OCC1CC(c2ccc(-c3ccc(N4C[C@H](Cn5ccnn5)OC4=O)cc3F)cn2)=NO1 (stereo not given in full) | 185 to 198 °C |
| O=[N+]([O-])c1cccc(-c2ccc3[nH]c(=S)n(Cc4ccccc4)c3c2)c1 | 244 to 245 °C |
| COC(=O)c1ccc(-n2cccn2)cc1 | 107 to 109 °C |
| COc1ccc(C(=O)CN2CCc3cc(OCc4ccccc4)c(OC)cc3C2)cc1OC | 126 to 127 °C |
| CC(F)C(C)(N)C(=O)O (stereo not given) | 226 °C |
| Cc1cc(C)cc(COCC(NC(=O)c2ccccc2)C(c2ccccc2)c2ccccc2)c1 (stereo not given) | 128 to 129 °C |
| CC(=O)c1ccc2c(c1)c1ccccc1n2CCCCl | 109 to 111 °C |
| CCNC(=O)[C@@H]1C[C@]2(NC(=O)N(CCCCl)C2=O)c2cc(F)ccc2O1 | 95 to 97 °C |
| O=C1CC(=O)OC2(O1)SC=CS2 | 59 to 60 °C |
| CS(=O)(=O)c1ccc(-c2cnn(Cc3c(F)c(F)c(F)c(F)c3F)c(=O)c2-c2ccc(F)cc2)cc1 | 115 to 116 °C |
| CCOC(=O)/C=C/c1cc(-c2ccc(C)cc2)n(-c2ccc(S(N)(=O)=O)cc2)n1 | 167 to 171 °C |
| O=C(OCc1ccccc1)N1CCC(O)(C(=O)O)C1 (stereo not given) | 142 to 144 °C |

| Compound | melting point |
| --- | --- |
| O=C(O)CCc1cc(C(c2cc(F)ccc2F)S(=O)(=O)c2ccc(Cl)cc2)c(F)cn1 (stereo not given) | 89 to 91 °C |
| CC(=S)NC[C@H]1CN(c2ccc3c(c2)OC[C@@H](C)N3)C(=O)O1 | 74 to 77 °C |
| FC(F)(F)c1ccn(-c2cc(N3CCOCC3)nc3ccccc23)n1 | 118 to 120 °C |
| CCOC(=O)c1ncn2c1CN(C)C(=O)c1ccccc1-2 | 163 to 165 °C |
| COc1ccc2c(c1)CCC1CCNC(=O)C(CC3(C)OCCO3)=C21 (stereo not given) | 192 to 194 °C |
| CCOC(=O)C1=C(C)NC(C=NOC)=C(C(=O)OCC)C1c1ccccc1Cl (stereo not given) | 110 to 112 °C |
| Clc1ccc(Nc2nnc(Cc3ccncc3)c3cnccc23)cc1 | 227 to 228 °C |
| NS(=O)(=O)c1ccc2c(c1)S(=O)(=O)NC1CCCN21 (stereo not given) | 260 to 262 °C |
| CC(C)c1oc(-c2ccccc2)c(-c2ccc(F)cc2)c1C=CC=O | 98 to 100 °C |
| COc1ccc(CN(C)CCc2ccc(NC(=O)c3cccc4c(=O)c5cccc([N+](=O)[O-])c5[nH]c34)cc2)cc1OC | 197 °C |
| O=c1oc(-c2cccnc2)cc(O)c1SCc1ccccc1 | 183 to 184 °C |
| CCOP(=O)(Cc1ccnc(C(N)=O)c1)OCC | 140 to 142 °C |
| NS(=O)(=O)c1cc(C(O)CN(Cc2ccccc2)Cc2ccccc2)ccc1N1CCCCC1 (stereo not given) | 133 to 142 °C |
| O=C(O)C(CC1CCCC1)c1ccc(Cl)c(Cl)c1 (stereo not given) | 74.5 to 76.9 °C |
| CCC#CCCOc1cc(/C=C/C(=O)Nc2ccccc2C(=O)O)ccc1OC | 163 to 165 °C |
| CCCN1CCN(c2cc(-c3ccc(F)cc3F)c3c(n2)CCCCCC3)CC1 | 108 to 109 °C |
| CCOC(Cn1nc(CC(=O)OC)c2ccccc2c1=O)OCC | 68 °C |
| CC(C(=O)O)c1ccc2sc3ncccc3c(=O)c2c1 (stereo not given) | 206 to 208 °C |
| CCCN(CCC)CCCC1CCN(CCNC(=O)N2c3cc(C)ccc3C(=O)Nc3cccnc32)CC1 | 195 °C |
| COCCCOc1cc(C[C@@H](CBr)C(C)C)ccc1OC | 52 to 53 °C |
| Nc1cc(S(=O)(=O)C(F)(F)F)cc(Cl)c1N | 143 to 145 °C |
| CCn1c(=O)c2[nH]c(/C=C/c3ccc(OC)c(F)c3)nc2n(CC)c1=O | > 270 °C |
| c1cc(N=Nc2ccncc2)ccn1 | 87 to 89 °C |
| CCOC(=O)/C=C(/c1ccc(OC)cc1)c1cc(F)cc(F)c1 | 65 to 66 °C |
| CCCCCCCCc1ccc(CCC(N)(CO)CO)cc1 | 103 to 105 °C |
